Drawing on PubChem BioAssay (NCI), this text covers TGI for 17 molecules.

Holding throughout (experiment): NCI anticancer screen, dose series, 48 h
Test [1] concerns DU-145 prostate.
Test [2] concerns NCI-H460 lung.
The subject of test [3] is M14 melanoma.
Test [4] has as its system HL-60(TB) leukemia.
Test [5] relates to MOLT-4 leukemia.
The subject of test [6] is TK-10 renal.
The test system of test [7] is NCI-H23 lung.
Test [8] deals with SK-OV-3 ovarian.
Test [9] concerns SNB-75 CNS.
Test [10] has as its system COLO 205 colon.

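How tested: cells in 96-well plates exposed to compound for 48 hours at five concentrations. TGI is the concentration that stops growth completely.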 Bounds are passed on as bounds.

For the molecule `NC1(c2cc3ccccc3s2)CCCC1`, the TGI in test [1] is more than 100 µM; in test [2] it was more than 100 µM; in [3] it was 56.2 µM; in test [4], more than 100 µM; in [5], 47.3 µM; in test [6], 85.7 µM. Moreover, the TGI in [7] was more than 100 µM; in test [8] it was more than 100 µM; in [9] it was more than 100 µM; in [10], 43.1 µM.

`Cc1ccnc(NS(=O)(=O)c2ccc(N=[N+]=[N-])cc2)n1`: the TGI in test [1] was more than 100 µM; in [2], more than 100 µM; in test [3] it was more than 100 µM; in test [4], more than 86.3 µM; in test [5], more than 60.4 µM; in [6] it was more than 100 µM. Also, the TGI in [7], in test [8], in test [9] and in test [10] was more than 100 µM each time.

For `Cc1ccc(-c2csc(=Nc3ccccc3)n2NC(=O)c2ccncc2)cc1`, the TGI in test [1] is more than 100 µM; in test [2], more than 100 µM; in test [3] it was more than 100 µM; in test [4], more than 69.2 µM; in test [5] it was more than 76.8 µM; in test [6], more than 100 µM. In addition, the TGI in [7] is more than 76.1 µM; in test [8], more than 100 µM; in [9], more than 88.2 µM; in test [10] it was 82.5 µM.

As to `CC(=O)c1c2c(c3ccccc3c1O)O[C@@H]1OCC[C@H]21`, the TGI in test [1], in test [2], in [3], in test [4], in test [5] and in test [6] was more than 100 µM in each case. The TGI in test [7] is more than 100 µM; in [8] it was more than 100 µM; in test [9], 34.2 µM; in test [10], more than 100 µM.

For `CCCCCC1=CC(=O)C1(Cl)Cl`, the TGI in test [1] was 26.1 µM; in test [2] it was more than 61.2 µM; in [3], 45.6 µM; in test [4], 4.06 µM; in test [5], 15.3 µM; in test [6], 20.8 µM. Moreover, the TGI came out at 49.7 µM in test [7], 85.4 µM in [8], 30.4 µM in test [9] and 26.7 µM in test [10].

On to `Cc1cc(C)nc(NS(=O)(=O)c2ccc(NC(=O)c3ccc4nc5ccccc5c(Nc5ccc(S(N)(=O)=O)cc5)c4c3)cc2)n1`, for which the TGI in test [1], in test [2], in [3], in test [4], in [5] and in [6] was more than 100 µM in each case. Further, the TGI in [7], in test [8], in [9] and in test [10] was more than 100 µM throughout.

On to `C[C@]12CCC3C4=C(CCC3C1CCC2=O)C(=O)[C@H]1O[C@H]1C4=O` (stereo not given in full), for which the TGI in test [1] was found to be 8.41 µM; in [2] it was 23.9 µM; in [3], 10.2 µM; in test [4] it was 7.93 µM; in test [5], 4.32 µM; in [6], 10.8 µM. Besides, the TGI was determined as 8.4 µM in [7], 28 µM in test [8], 8.14 µM in test [9] and 9.23 µM in test [10].

With `CC1=Nc2ccccc2OC(C)=C1N=Nc1ccc2nc(C)[nH]c2c1`, the TGI in test [1], in test [2], in test [3], in [4], in test [5] and in test [6] was more than 100 µM each time. Besides, the TGI in [7], in test [8], in test [9] and in [10] was more than 100 µM each time.

With `O=C1CCCCC1CN1CCCCC1` (stereo not given), the TGI in test [1], in test [2], in [3], in test [4], in test [5] and in test [6] was more than 100 µM throughout. The TGI in test [7], in test [8], in test [9] and in [10] was more than 100 µM in each case.

As to `O=[N+]([O-])c1ccc2[nH]nc(OCc3ccccc3Cl)c2c1`, the TGI is more than 100 µM in [1]; more than 100 µM in [2]; more than 100 µM in test [3]; more than 100 µM in [4]; more than 100 µM in [5]; 61.3 µM in [6]. Also, the TGI in [7] was more than 100 µM; in [8], 31.9 µM; in [9] it was more than 100 µM; in test [10] it was more than 100 µM.

Take `O=C(NCc1ccccc1)c1n[nH][nH]c1=O`: the TGI in test [1], in test [2], in [3], in test [4], in test [5] and in test [6] was more than 100 µM each time. The TGI in test [7], in test [8], in test [9] and in test [10] was more than 100 µM in each case.

Consider `CCOC(=O)N1CCN(Cc2cc(=O)n3ccc(C)cc3n2)CC1`, for which the TGI in [1], in [2], in [3], in test [4], in [5] and in test [6] was more than 100 µM in each case. Besides, the TGI in [7], in [8], in test [9] and in test [10] was more than 100 µM in each case.

`c1ccc2c(c1)Cn1c-2nc2ccccc21`: the TGI in [1], in test [2], in [3], in [4], in [5] and in [6] was more than 100 µM each time. Besides, the TGI in test [7] is more than 100 µM; in test [8], more than 100 µM; in test [9] it was 73.3 µM; in test [10] it was more than 100 µM.

`CCOC(=O)c1c(CN2CCCC2)n(-c2ccccc2)c2cc(Br)c(O)cc12`: the TGI came to 39.5 µM in test [1]; 32.9 µM in test [2]; 29 µM in test [3]; 27.5 µM in test [4]; 41.7 µM in test [5]; 48 µM in [6]. Further, the TGI in test [7] amounted to 42.8 µM; in test [8], 66.5 µM; in test [9] it was 36.7 µM; in test [10], 22.4 µM.

For `Cc1oc2c(cc(O)c3cc(O)ccc32)c2cccc1-2`, the TGI in [1], in test [2], in [3], in [4], in test [5] and in test [6] was more than 100 µM throughout. Further, the TGI in test [7], in test [8], in test [9] and in test [10] was more than 100 µM each time.

For the molecule `COc1cc(S(=O)(=O)Nc2nc(-c3ccc(N4C(=O)C(CC(=O)O)SC4c4cccs4)cc3)cs2)ccc1Cl` (stereo not given), the TGI in test [1] is more than 100 µM; in test [2], more than 100 µM; in test [3], more than 100 µM; in [4], 74 µM; in test [5], 64.6 µM; in test [6], more than 100 µM. The TGI in test [7] was 49 µM; in [8], more than 100 µM; in [9], 40.4 µM; in test [10], more than 100 µM.

For `COc1ccc(C(=C2C=CC=C2)c2ccc(OC)cc2)cc1`, the TGI in test [1] was more than 100 µM; in [2] it was 86.7 µM; in test [3], more than 100 µM; in [4], more than 100 µM; in test [5] it was 40.3 µM; in test [6] it was more than 100 µM. Besides, the TGI in test [7] was more than 100 µM; in test [8], more than 100 µM; in test [9], more than 100 µM; in [10], 43.5 µM.
